Results from US10766864B2, “Morphinan derivatives for the treatment of neuropathic pain” (Nektar Therapeutics, priority 2015, dated 2020).
Where two headings read alike, the source gives them in different places.

Legend:
hMOR = hMOR (Homo sapiens (Human), UniProt P35372); assay: cAMP accumulation assay (inhibition of forskolin-stimulated cAMP) in CHO-K1 cells stably expressing hMOR; format: cell-based
Protocol: Mu opioid agonist activity for selected compounds was determined by the inhibition of forskolin-stimulated cAMP accumulation following MOR activation in CHO-K1 cells stably expressing the hMOR. […] IC50 values were calculated from […] analysis of the concentration-response curves using Graph Pad Prizm.

mu opioid receptor (MOR) = mu opioid receptor (MOR) (Homo sapiens (Human), UniProt P35372); assay: Competitive radioligand binding at MOR ([3H] Naloxone)
NMDA receptor = assay: Competitive radioligand binding at NMDA receptor ([3H] MK801), rat forebrain membranes; settings: 0.2 nM [3H] MK801, reflects free base activity
[1] = system: rat formalin paw model of persistent pain; assay: Automated formalin paw test, oral administration; format: in vivo; settings: at at least one dosage between 10 mg/kg and 300 mg/kg (inclusive), in the presence of 1-aminobenzotriazole
Protocol: The in vivo efficacy of selected compounds following oral administration was measured using the rat formalin model of persistent pain. Test compounds were administered 30-60 minutes prior to injection of 5% formalin to the hind-paw of rats and paw movements were measured using the automated Nociception Analyzer (ANA Instrument; University of California, San Diego) for 60 minutes post-formalin. In some experiments, rats were pre-treated 16-22 hours priors to the experiment with the cytochrome-P450 inhibitor, 1-aminobenzotriazole (ABT), to assess the activity of compounds in the absence of significant quantities of metabolites. ED50 values (mg/kg) were calculated from non-linear regression analyses of the cumulative number of flinches in Phase II (10-60 mins) versus dose of test compounds.
In the rat formalin paw model of persistent pain, compounds 83, 113, 114 and 115 (described in Examples 83, 113, 114 and 115, respectively) were tested. In each case, the oral efficacy of the compounds was measured in the presence and absence of the cytochrome CYP-450 inhibitor, 1-aminobenzotriazole.

[2] = Phase II clinical study; cited from earlier work
[3] = hMOR-expressing CHO-K1 cells, 10 μM forskolin, 60 minute incubation, read-out: MOR cAMP IC50
[4] = membranes from CHO-K1 cells expressing MOR, 2 nM [3H] Naloxone, reflects free base activity, read-out: MOR IC50

SMILES | IC50 (hMOR) [nM] | IC50 (mu opioid receptor (MOR)) [nM] | IC50 (NMDA receptor) [nM] | also measured
COCCN1CC[C@]23CC(=O)CC[C@H]2[C@H]1Cc1ccc(O)cc13 [Compound 3, 3-hydroxy-17-(2-methoxyethyl)morphinan-6-one] | 0.1 to 10 | 0.1 to 10 | – | –
COCCOc1ccc2c(c1)[C@]13CCN(C)[C@H](C2)[C@@H]1CCC(=O)C3 [Compound 7, 3-(2-methoxyethoxy)-17-methylmorphinan-6-one] | 100 to 1000 | 100 to 1000 | > 10000 | –
COCCOCCN1CC[C@]23CCCC[C@H]2[C@H]1Cc1ccc(OC)cc13 [Compound 12, 3-methoxy-17-[2-(2-methoxyethoxy)ethyl]-morphinan] | – | – | > 10000 | IC50 (hMOR; [3]): > 1000 nM; IC50 (mu opioid receptor (MOR); [4]): > 1000 nM
COCCOCCN1CC[C@]23CCCC[C@H]2[C@H]1Cc1ccc(O)cc13 [Compound 15, 17-[2-(2-methoxyethoxy)ethyl]morphinan-3-ol] | 10 to 100 | 10 to 100 | > 10000 | –
COCCOCCOCCN1CC[C@]23CCCC[C@H]2[C@H]1Cc1ccc(O)cc13 [Compound 16, 17-{2-{2-(2-methoxyethoxy)ethoxy]ethyl}-morphinan-3-ol] | – | – | – | IC50 (hMOR; [3]): > 1000 nM; IC50 (mu opioid receptor (MOR); [4]): > 1000 nM
COCCNC(=O)Oc1ccc2c(c1)[C@@]13CCCC[C@H]1[C@@H](C2)N(C)CC3 [Compound 18, 17-methylmorphinan-3-yl (2-methoxyethyl)carbamate] | 100 to 1000 | 100 to 1000 | 1000 to 10000 | –
COCCOc1c(O)ccc2c1[C@@]13CCCC[C@H]1[C@@H](C2)N(C)CC3 [Compound 22, 4-(2-methoxyethoxy)-17-methylmorphinan-3-ol] | 10 to 100 | 10 to 100 | – | –
COc1ccccc1Nc1ccc2c(c1)[C@@]13CCCC[C@H]1[C@@H](C2)N(C)CC3 [Compound 30, N-(2-methoxyphenyl)-17-methylmorphinan-3-amine] | 10 to 100 | 10 to 100 | 1000 to 10000 | –
COCCOCCOCC(=O)Nc1ccc2c(c1)[C@@]13CCCC[C@H]1[C@@H](C2)N(C)CC3 [Compound 33, 2-[2-(2-methoxyethoxy)ethoxy]-N-(17-methylmorphinan-3-yl)acetamide] | 100 to 1000 | 100 to 1000 | > 10000 | –
COCCOCCOc1ccc(Nc2ccc3c(c2)[C@@]24CCCC[C@H]2[C@@H](C3)N(C)CC4)cc1 [Compound 36, N-{4-[2-(2-methoxyethoxy)ethoxy]phenyl}-17-methylmorphinan-3-amine] | – | – | 1000 to 10000 | IC50 (hMOR; [3]): 10 to 100 nM; IC50 (mu opioid receptor (MOR); [4]): 10 to 100 nM
CN1CC[C@]23CCCC[C@H]2[C@H]1Cc1ccc(Nc2cccnc2)cc13 [Compound 43, 17-methyl-N-(pyridin-3-yl)morphinan-3-amine] | 0.1 to 10 | 0.1 to 10 | 0.1 to 100 | –
CN1CC[C@]23CCCC[C@H]2[C@H]1Cc1ccc(-c2cn[nH]c2)cc13 [Compound 44, 17-methyl-3-(1H-pyrazol-4-yl)morphinan] | 10 to 100 | 10 to 100 | 100 to 1000 | –
CN1CC[C@]23CCCC[C@H]2[C@H]1Cc1ccc(Nc2nccs2)cc13 [Compound 46, 17-methyl-N-(1,3-thiazol-2-yl)morphinan-3-amine] | 10 to 100 | 10 to 100 | 100 to 1000 | –
COCCOCCOCCO[C@@H]1CC[C@H]2[C@H]3Cc4ccc(O)cc4[C@@]2(CCN3C)C1 [Compound 47, (6β)-6-{2-[2-(2-methoxyethoxy)ethoxy]ethoxy}-17-methylmorphinan-3-ol] | 0.1 to 10 | 0.1 to 10 | – | –
COCCOCCOCCOCCOCCOCC(=O)Nc1nc2cc3c(cc2s1)C[C@@H]1[C@@H]2CCCC[C@]32CCN1C [Compound 69] | – | – | 1000 to 10000 | IC50 (hMOR; [3]): 100 to 1000 nM; IC50 (mu opioid receptor (MOR); [4]): 100 to 1000 nM
COCCOCCN1CC[C@]23CCCC[C@H]2[C@H]1Cc1ccc(Nc2cccnc2)cc13 [Compound 83, 17-[2-(2-methoxyethoxy)ethyl]-N-(pyridin-3-yl)morphinan-3-amine] | – | 100 to 1000 | 1000 to 10000 | oral efficacy in Phase I and Phase II of the rat formalin paw model [1]: statistically significant efficacy
CN1CC[C@]23CCCC[C@H]2[C@H]1Cc1cc2ccc(=O)[nH]c2cc13 [Compound 102, (4aR,5R,12bR)-15-methyl-1,2,3,4,4a,5,6,11-octahydro-10H-5,12b-(epiminoethano)naphtho[2,1-g]quinolin-10-one] | – | – | > 10000 | IC50 (mu opioid receptor (MOR); [4]): > 1000 nM
CN1CC[C@]23CCCC[C@H]2[C@H]1Cc1cc(C#N)c(N)cc13 [Compound 103, 3-amino-17-methylmorphinan-2-carbonitrile] | – | – | > 10000 | IC50 (mu opioid receptor (MOR); [4]): > 1000 nM
COCCOCCN1CC[C@]23CCCC[C@H]2[C@H]1Cc1ccc(Nc2cncc(F)c2)cc13 [Compound 104, 17-[2-(2-methoxyethoxy)ethyl]-N-(5-fluoro-pyridin-3-yl)morphinan-3-amine] | – | 10 to 100 | > 10000 | –
COCCOCCN1CC[C@]23CCCC[C@H]2[C@H]1Cc1ccc(Nc2nccs2)cc13 [Compound 105, N-((4bR,8aR,9R)-11-(2-(2-methoxyethoxy)ethyl)-6,7,8,8a,9,10-hexahydro-5H-9,4b-(epiminoethano)phenanthren-3-yl)thiazol-2-amine] | – | 100 to 1000 | > 10000 | –
COCCOCCN1CC[C@]23CCCC[C@H]2[C@H]1Cc1ccc(-c2ccoc2)cc13 [Compound 106, (4bR,8aR,9R)-3-(furan-3-yl)-11-(2-(2-methoxyethoxy)ethyl)-6,7,8,8a,9,10-hexahydro-5H-9,4b-(epiminoethano)phenanthrene] | – | 100 to 1000 | > 10000 | –
COCCN1CC[C@]23CCCC[C@H]2[C@H]1Cc1ccc(O)cc13 [Compound 113, 3-hydroxy-17-(2-methoxyethyl)morphinan] | 0.1 to 10 | 0.1 to 10 | 100 to 1000 | oral efficacy in Phase I and Phase II of the rat formalin paw model [1]: statistically significant efficacy
CN1CC[C@]23CCCC[C@H]2[C@H]1Cc1ccc(N)cc13 [Compound 114, 3-amino-17-morphinan] | 100 to 1000 | 100 to 1000 | 100 to 1000 | oral efficacy in Phase I and Phase II of the rat formalin paw model [1]: statistically significant efficacy
CN1CC[C@]23CCCC[C@H]2[C@H]1Cc1cc2sc(N)nc2cc13 [Compound 115, (4aR,5R,11bR)-14-methyl-2,3,4,4a,5,6-hexahydro-1H-5,11b-(epiminoethano)phenanthro[3,2-d]thiazol-9-amine] | – | – | 0.1 to 100 | IC50 (hMOR; [3]): 10 to 100 nM; IC50 (mu opioid receptor (MOR); [4]): 10 to 100 nM; oral efficacy in Phase I and Phase II of the rat formalin paw model [1]: statistically significant efficacy
CN1CC[C@]23CCCC[C@H]2[C@H]1Cc1ccc(O)cc13 [levorphanol, 17-Methylmorphinan-3-ol] | – | – | – | reduction of neuropathic pain [2]: effective in reducing neuropathic pain; side effects [2]: severe dose-limiting side effects
